According to PubChem BioAssay AID2060500 (Molecular Pharmacology Branch, DTP, NCI, 2025):

Tested on: 596521-263-R-J1-PDC complex spheroids, viability % of control
Assay: Anticancer human tumor 596521-263-R-J1-PDC patient-derived soft tissue sarcoma cell line growth inhibition [GQUAD]
Conditions: for IC50: curve of first compound; for viability, T/C: stronger effect = lower value
Procedure, shortened: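 Tumor cells were grown as complex spheroids with HUVEC endothelial cells and mesenchymal stem cells as stroma. G-quadruplex stabilizers were combined with targeted agents over half-log dilutions from near the clinical Cmax, or from 10 microM.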

[1] = second compound 0.0316 µM, first compound 0.000999 µM
[2] = second compound 0.0316 µM, first compound 0.00316 µM
[3] = second compound 0.0316 µM, first compound 0.00999 µM
[4] = second compound 0.0316 µM, first compound 0.0316 µM
[5] = second compound 0.0316 µM, first compound 0.0999 µM
[6] = second compound 0.0316 µM, first compound 0.316 µM
[7] = second compound 0.1 µM, first compound 0.000999 µM
[8] = second compound 0.1 µM, first compound 0.00316 µM
[9] = second compound 0.1 µM, first compound 0.00999 µM
[10] = second compound 0.1 µM, first compound 0.0316 µM
[11] = second compound 0.1 µM, first compound 0.0999 µM
[12] = second compound 0.1 µM, first compound 0.316 µM
[13] = second compound 0.316 µM, first compound 0.000999 µM
[14] = second compound 0.316 µM, first compound 0.00316 µM
[15] = second compound 0.316 µM, first compound 0.00999 µM
[16] = second compound 0.316 µM, first compound 0.0316 µM
[17] = second compound 0.316 µM, first compound 0.0999 µM
[18] = second compound 0.316 µM, first compound 0.316 µM
[19] = second compound 1 µM, first compound 0.000999 µM
[20] = second compound 1 µM, first compound 0.00316 µM
[21] = second compound 1 µM, first compound 0.00999 µM
[22] = second compound 1 µM, first compound 0.0316 µM
[23] = second compound 1 µM, first compound 0.0999 µM
[24] = second compound 1 µM, first compound 0.316 µM
[25] = second compound 3.16 µM, first compound 0.000999 µM
[26] = second compound 3.16 µM, first compound 0.00316 µM
[27] = second compound 3.16 µM, first compound 0.00999 µM
[28] = second compound 3.16 µM, first compound 0.0316 µM
[29] = second compound 3.16 µM, first compound 0.0999 µM
[30] = second compound 3.16 µM, first compound 0.316 µM
[31] = second compound 10 µM, first compound 0.000999 µM
[32] = second compound 10 µM, first compound 0.00316 µM
[33] = second compound 10 µM, first compound 0.00999 µM
[34] = second compound 10 µM, first compound 0.0316 µM
[35] = second compound 10 µM, first compound 0.0999 µM
[36] = second compound 10 µM, first compound 0.316 µM
[37] = second compound 0.0316 µM, first compound 0.1 µM
[38] = second compound 0.0316 µM, first compound 1 µM
[39] = second compound 0.0316 µM, first compound 3.16 µM
[40] = second compound 0.0316 µM, first compound 10 µM
[41] = second compound 0.1 µM, first compound 0.1 µM
[42] = second compound 0.1 µM, first compound 1 µM
[43] = second compound 0.1 µM, first compound 3.16 µM
[44] = second compound 0.1 µM, first compound 10 µM
[45] = second compound 0.316 µM, first compound 0.1 µM
[46] = second compound 0.316 µM, first compound 1 µM
[47] = second compound 0.316 µM, first compound 3.16 µM
[48] = second compound 0.316 µM, first compound 10 µM
[49] = second compound 1 µM, first compound 0.1 µM
[50] = second compound 1 µM, first compound 1 µM
[51] = second compound 1 µM, first compound 3.16 µM
[52] = second compound 1 µM, first compound 10 µM
[53] = second compound 3.16 µM, first compound 0.1 µM
[54] = second compound 3.16 µM, first compound 1 µM
[55] = second compound 3.16 µM, first compound 3.16 µM
[56] = second compound 3.16 µM, first compound 10 µM
[57] = second compound 10 µM, first compound 0.1 µM
[58] = second compound 10 µM, first compound 1 µM
[59] = second compound 10 µM, first compound 3.16 µM
[60] = second compound 10 µM, first compound 10 µM
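Further: spheroids exposed to drugs for 7 days before viability reading.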
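Wherever viability, T/C is given: 100% = DMSO vehicle control viability.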

With `Cn1ncnc1[C@H]1c2n[nH]c(=O)c3cc(F)cc(c23)N[C@@H]1c1ccc(F)cc1` + Cc1[nH]c2ccc(F)cc2c1-c1nc2c3cccnc3c3ncccc3c2[nH]1 the IC50 (second compound 0.0316 µM) was greater than 316 nM, the IC50 (second compound 0.1 µM) was greater than 316 nM and the IC50 (second compound 0.316 µM) was greater than 316 nM. It also gave an IC50 (second compound 1 µM) greater than 316 nM, an IC50 (second compound 3.16 µM) greater than 316 nM and an IC50 (second compound 10 µM) greater than 316 nM. The viability, T/C [1] was 89.4%, the viability, T/C [2] was 93.6% and the viability, T/C [3] was 90.2%. It also gave a viability, T/C [4] of 86.6%, a viability, T/C [5] of 95.2% and a viability, T/C [6] of 94.7%. It also gave a viability, T/C [7] of 101%, a viability, T/C [8] of 98.9% and a viability, T/C [9] of 96.7%. It also gave a viability, T/C [10] of 110%, a viability, T/C [11] of 94.1% and a viability, T/C [12] of 78.1%. It also gave a viability, T/C [13] of 95.2%, a viability, T/C [14] of 94.2% and a viability, T/C [15] of 97.9%. For the same compound, the viability, T/C [16] was 89.5%, the viability, T/C [17] was 80.4% and the viability, T/C [18] was 78.4%. It also gave a viability, T/C [19] of 94.8%, a viability, T/C [20] of 90.9% and a viability, T/C [21] of 88.6%. For the same compound, the viability, T/C [22] was 83.5%, the viability, T/C [23] was 85.9% and the viability, T/C [24] was 79.5%. The viability, T/C [25] was 89.3%, the viability, T/C [26] was 84.5% and the viability, T/C [27] was 84.7%. It also gave a viability, T/C [28] of 77.7%, a viability, T/C [29] of 81.8% and a viability, T/C [30] of 72.6%. The viability, T/C [31] was 73.8%, the viability, T/C [32] was 85.6% and the viability, T/C [33] was 86.4%. The viability, T/C [34] was 76.5%, the viability, T/C [35] was 72.5% and the viability, T/C [36] was 74.3%.
Compound `Cc1cccc(N(C)C(=O)C2C(O)CCN2c2nc(C)cc(C(F)(F)F)c2C#N)c1` (stereo not drawn) + CN(C)c1ccc(Nc2c3ccc(NC(=O)CCN4CCCC4)cc3nc3cc(NC(=O)CCN4CCCC4)ccc23)cc1 has an IC50 (second compound 0.0316 µM) greater than 10000 nM, an IC50 (second compound 0.1 µM) greater than 10000 nM and an IC50 (second compound 0.316 µM) greater than 10000 nM. The IC50 (second compound 1 µM) was greater than 10000 nM, the IC50 (second compound 3.16 µM) was greater than 10000 nM and the IC50 (second compound 10 µM) was greater than 10000 nM. For the same compound, the viability, T/C [4] was 108%, the viability, T/C [37] was 99% and the viability, T/C [6] was 89.8%. For the same compound, the viability, T/C [38] was 94.1%, the viability, T/C [39] was 101% and the viability, T/C [40] was 101%. It also gave a viability, T/C [10] of 118%, a viability, T/C [41] of 95.7% and a viability, T/C [12] of 91.6%. The viability, T/C [42] was 109%, the viability, T/C [43] was 95.5% and the viability, T/C [44] was 109%. The viability, T/C [16] was 102%, the viability, T/C [45] was 102% and the viability, T/C [18] was 100%. The viability, T/C [46] was 115%, the viability, T/C [47] was 113% and the viability, T/C [48] was 102%. It also gave a viability, T/C [22] of 90.6%, a viability, T/C [49] of 103% and a viability, T/C [24] of 105%. The viability, T/C [50] was 105%, the viability, T/C [51] was 97.6% and the viability, T/C [52] was 88%. The viability, T/C [28] was 88%, the viability, T/C [53] was 98.1% and the viability, T/C [30] was 95.8%. The viability, T/C [54] was 91%, the viability, T/C [55] was 85.9% and the viability, T/C [56] was 87.7%. For the same compound, the viability, T/C [34] was 62.7%, the viability, T/C [57] was 63.6% and the viability, T/C [36] was 72.9%. The viability, T/C [58] was 63.7%, the viability, T/C [59] was 58.8% and the viability, T/C [60] was 47.8%.
Compound `Cc1[nH]c2ccccc2c1CCNCc1ccc(/C=C/C(=O)NO)cc1` + Cc1cnc(CNC(=O)c2c(=O)c3ccc(N4CCCN(C)CC4)nc3n3c2sc2ccccc23)cn1 has an IC50 (second compound 0.0316 µM) of 44.4 nM, an IC50 (second compound 0.1 µM) of 57.5 nM and an IC50 (second compound 0.316 µM) of 49.3 nM. For the same compound, the IC50 (second compound 1 µM) was 39.4 nM, the IC50 (second compound 3.16 µM) was 18.5 nM and the IC50 (second compound 10 µM) was less than 0.999 nM. It also gave a viability, T/C [1] of 103%, a viability, T/C [2] of 88.9% and a viability, T/C [3] of 83.1%. For the same compound, the viability, T/C [4] was 58.4%, the viability, T/C [5] was 29.2% and the viability, T/C [6] was 2%. The viability, T/C [7] was 99.9%, the viability, T/C [8] was 81.8% and the viability, T/C [9] was 79.7%. It also gave a viability, T/C [10] of 61.8%, a viability, T/C [11] of 40.6% and a viability, T/C [12] of 2.65%. It also gave a viability, T/C [13] of 83.2%, a viability, T/C [14] of 73.9% and a viability, T/C [15] of 67.8%. It also gave a viability, T/C [16] of 63.3%, a viability, T/C [17] of 34.3% and a viability, T/C [18] of 2.74%. The viability, T/C [19] was 65.2%, the viability, T/C [20] was 67.5% and the viability, T/C [21] was 67.8%. It also gave a viability, T/C [22] of 48%, a viability, T/C [23] of 36.8% and a viability, T/C [24] of 0.29%. It also gave a viability, T/C [25] of 49.9%, a viability, T/C [26] of 54.4% and a viability, T/C [27] of 54%. The viability, T/C [28] was 47.4%, the viability, T/C [29] was 30.5% and the viability, T/C [30] was 0.21%. The viability, T/C [31] was 41.9%, the viability, T/C [32] was 19.3% and the viability, T/C [33] was 43.1%. It also gave a viability, T/C [34] of 37.8%, a viability, T/C [35] of 0.34% and a viability, T/C [36] of 0.24%.
For `Nc1ccn(C2OC(CO)C(O)C2(F)F)c(=O)n1` (stereo not drawn) + Cc1[nH]c2ccc(F)cc2c1-c1nc2c3cccnc3c3ncccc3c2[nH]1, the IC50 (second compound 0.0316 µM) was 34.7 nM, the IC50 (second compound 0.1 µM) was 58.1 nM and the IC50 (second compound 0.316 µM) was less than 31.6 nM. It also gave an IC50 (second compound 1 µM) of less than 31.6 nM, an IC50 (second compound 3.16 µM) of 125 nM and an IC50 (second compound 10 µM) of less than 31.6 nM. The viability, T/C [4] was 54.6%, the viability, T/C [37] was 45.5% and the viability, T/C [6] was 38.1%. It also gave a viability, T/C [38] of 38.7%, a viability, T/C [39] of 42.6% and a viability, T/C [40] of 32.9%. It also gave a viability, T/C [10] of 57%, a viability, T/C [41] of 47.2% and a viability, T/C [12] of 38%. It also gave a viability, T/C [42] of 47.2%, a viability, T/C [43] of 39.2% and a viability, T/C [44] of 41.5%. It also gave a viability, T/C [16] of 57%, a viability, T/C [45] of 39% and a viability, T/C [18] of 36.4%. The viability, T/C [46] was 44.2%, the viability, T/C [47] was 45.4% and the viability, T/C [48] was 41.1%. For the same compound, the viability, T/C [22] was 53.3%, the viability, T/C [49] was 38.3% and the viability, T/C [24] was 43.6%. For the same compound, the viability, T/C [50] was 39.3%, the viability, T/C [51] was 40.8% and the viability, T/C [52] was 37.9%. The viability, T/C [28] was 60.7%, the viability, T/C [53] was 49.2% and the viability, T/C [30] was 43%. It also gave a viability, T/C [54] of 42%, a viability, T/C [55] of 42.7% and a viability, T/C [56] of 30.7%. For the same compound, the viability, T/C [34] was 56.7%, the viability, T/C [57] was 37.3% and the viability, T/C [36] was 38.8%. It also gave a viability, T/C [58] of 32.7%, a viability, T/C [59] of 38.2% and a viability, T/C [60] of 36.3%.
